Data taken from patent US20250179047A1, “5-[7-(3,4-DIHYDRO-1H-ISOQUINOLINE-2-CARBONYL)-1,2,3,4 TETRAHYDROISOQUINOLIN-6-YL]-1H-PYRROLE-3-CARBOXAMIDE DERIVATIVES, PHARMACEUTICAL COMPOSITIONS CONTAINING THEM AND THEIR USES AS PRO-APOPTOTIC AGENTS” (LES LABORATOIRES SERVIER, priority 2022, published 2025).

biological target: CYP3A4 (Homo sapiens (Human), UniProt P08684); assay: CYP3A4 inhibition determination in hepatic human microsomes; assay type: in vitro ADME; conditions: LC/MS-MS of specific metabolite
Description: The inhibitory potential was determined on CYP3 Å4 enzyme using hepatic human microsomes. A range of concentrations (adapted based on the solubility) of the tested compound were incubated in presence of a substrate having a specific metabolite of CYP3 Å4 enzyme.
Then, the formation of the metabolite was quantified using LC/MS-MS analysis and a curve corresponding to the concentration of the metabolite in function of the concentration of the test compound allowed to the calculation of the IC50 value.

CYP3A4, sequence (P08684 whole entry): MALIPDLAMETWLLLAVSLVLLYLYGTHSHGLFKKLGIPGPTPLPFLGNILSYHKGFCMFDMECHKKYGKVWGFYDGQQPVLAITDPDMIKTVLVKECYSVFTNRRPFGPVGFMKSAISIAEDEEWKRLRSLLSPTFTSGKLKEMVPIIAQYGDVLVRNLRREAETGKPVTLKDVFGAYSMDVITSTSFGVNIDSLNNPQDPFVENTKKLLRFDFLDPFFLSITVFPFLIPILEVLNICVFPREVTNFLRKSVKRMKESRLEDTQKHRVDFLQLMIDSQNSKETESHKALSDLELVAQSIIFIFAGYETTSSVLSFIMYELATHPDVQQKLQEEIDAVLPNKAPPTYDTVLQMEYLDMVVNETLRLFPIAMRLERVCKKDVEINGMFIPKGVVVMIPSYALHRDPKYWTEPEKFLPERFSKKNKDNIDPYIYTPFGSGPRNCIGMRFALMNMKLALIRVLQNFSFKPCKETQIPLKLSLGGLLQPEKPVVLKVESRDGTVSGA

| Structure (SMILES) | IC50 |
| --- | --- |
| Cc1c(N(C(=O)c2cc(-c3cc4c(cc3C(=O)N3Cc5ccccc5C[C@H]3C)CN(C(=O)Cc3ccc(OCCN5CCOCC5)cc3)CC4)n(C)c2C)c2ccc(O)cc2)cc(C#N)n1C [Example 21, N-(5-cyano-1,2-dimethyl-1H-pyrrol-3-yl)-N-(4-hydroxyphenyl)-1,2-dimethyl-5-{7-[(3R)-3-methyl-1,2,3,4-tetrahydroisoquinoline-2-carbonyl]-2-(2-{4-[2-(morpholin-4-yl)ethoxy]phenyl}acetyl)-1,2,3,4-tetrahydroisoquinolin-6-yl}-1H-pyrrole-3-carboxamide] | 6.2 µM |
| Cc1c(C(=O)N(c2ccc(O)cc2)c2cc(C#N)n(C(F)F)c2C)cc(-c2cc3c(cc2C(=O)N2Cc4ccccc4C[C@H]2CN2CCCCC2)CN(C(=O)Cc2ccc(OCCN4CCOCC4)cc2)CC3)n1C [Example 77] | > 5 µM |
| Cc1c(C(=O)N(c2ccc(O)cc2)c2cc(C#N)n(C(F)F)c2C)cc(-c2cc3c(cc2C(=O)N2Cc4ccccc4C[C@H]2CN2CCCCC2)CN(C(=O)Cc2ccc(OCCN4CCOCC4)cc2F)CC3)n1C [Example 78, N-[5-cyano-1-(difluoromethyl)-2-methylpyrrol-3-yl]-5-[2-(2-{2-fluoro-4-[2-(morpholin-4-yl)ethoxy]phenyl}acetyl)-7-{[(3S)-3-(piperidin-1-ylmethyl)-3,4-dihydro-1H-isoquinolin-2-yl]carbonyl}-3,4-dihydro-1H-isoquinolin-6-yl]-N-(4-hydroxyphenyl)-1,2-dimethylpyrrole-3-carboxamide] | > 5 µM |
